Test results published in patent US20030232102A1, “Total glycosides of paeony, method to prepare the same and uses thereof” (priority 2001, published 2003).

Columns and labels:
[1] = system: patients with rheumatoid arthritis; assay: Phase II clinical study: laboratory tests and immune system perimeters; format: in vivo, human; design: ESR / CRP / RF / Ig A / Ig G / Laboratory blood tests: Hg / Laboratory blood tests: WBC / Laboratory blood tests: BP / Laboratory blood tests: Cr / Laboratory blood tests: BUN: unit not given here; conditions: for Laboratory blood tests: Hg / Laboratory blood tests: WBC / Laboratory blood tests: BP / Laboratory blood tests: BUN / Laboratory blood tests: Cr / Laboratory blood tests: GPT: overall group
Excerpt: (§1) It was a multiple-centered, randomized, parallel, positive controlled Phrase II clinical study.
10) Routine blood and urine exam: Hemoglobin, platelet count, biochemical serum test and routine urine test
11) Blood Sedimentation (Norm. M: 15 mm/hr F: 20 mm/hr)
12) Serum Rheumatoid Factor (Method: Latex Agglutination Test, LAT): The maximum titer value were required for positive reaction patients. All centers use the same standard agents in one product batch.
13) C-reactive protein (quantitative method): All centers use the same standard agents in one product batch.

[2] = system: patients with rheumatoid arthritis; assay: Phase II clinical study: adverse (reverse) drug effects and drug toleration; format: in vivo, human
Method: as §1
The eneral condition of patients was evaluated on each visit and follow-up survey. Patients were inquired of symptoms and signs into a 26-item list of side effect. Once a possible side effect occurred, the relevant information as time, severity, frequency, duration, method used in release and its result were recorded by the doctor. […] A second disease occurred during the study was not counted in as a side effect. Index of overall side-effect is as below:
2=upset of medium severity, interfere with the daily life of patient
3=sever unwell, obviously affect a normal daily life and may need a bed rest.
4=life threatening side effect
Investigators should score individually on drug toleration in each patient after the test base on the following criteria:
0=bear sever side effect(s) and need to halt the test
1=side effects(s) of medium severity, relevant treatments is adopted.
2=mild side effect(s), no treatment was needed

[3] = 4 weeks (row order of Table 65)
[4] = 8 weeks (row order of Table 65)
[5] = 12 weeks (row order of Table 65)
[6] = 24 weeks (row order of Table 65)
[7] = 4 weeks (row order of Table 67)
[8] = 8 weeks (row order of Table 67)
[9] = 12 weeks (row order of Table 67)
[10] = 24 weeks (row order of Table 67)
[11] = period of treatment 0 (row order of Table 67)
[12] = period of treatment 0 (row order of Table 65)
[13] = double-blind, 4 weeks, column 1
[14] = double-blind, 12 weeks, column 1
[15] = double-blind, 12 weeks, column 2
[16] = overall group, 4 weeks, column 1
[17] = overall group, 4 weeks, column 2
[18] = overall group, 4 weeks, column 3
[19] = overall group, 8 weeks, column 1
[20] = overall group, 8 weeks, column 2
[21] = overall group, 8 weeks, column 3
[22] = overall group, 12 weeks, column 1
[23] = overall group, 12 weeks, column 2
[24] = overall group, 24 weeks, column 1
[25] = overall group, 24 weeks, column 2

CN(Cc1cnc2nc(N)nc(N)c2n1)c1ccc(C(=O)N[C@@H](CCC(=O)O)C(=O)O)cc1 [MTX, Methotrexate]
CRP ([1]; 4 weeks): 27.97 ± 21.12 | ESR ([1]; 4 weeks): 42.11 ± 38.68 | Ig A [1, 3]: 3.64 ± 3.54 | Ig G [1, 3]: 17.40 ± 6.59 | RF [1, 3]: 1.87 ± 0.62 | CRP ([1]; 8 weeks): 25.72 ± 19.42 | ESR ([1]; 8 weeks): 44.92 ± 78.36 | Ig A [1, 4]: 3.98 ± 3.56 | Ig G [1, 4]: 17.62 ± 6.37 | Ig M [1, 4]: 2.76 ± 2.24 | RF [1, 4]: 1.59 ± 0.61 | CRP ([1]; 12 weeks): 22.31 ± 18.91 | ESR ([1]; 12 weeks): 29.96 ± 20.48 | Ig A [1, 5]: 3.39 ± 3.15 | Ig G [1, 5]: 16.47 ± 5.92 | RF [1, 5]: 1.72 ± 0.56 | CRP ([1]; 24 weeks): 27.12 ± 22.39 | ESR ([1]; 24 weeks): 28.66 ± 20.96 | Ig A [1, 6]: 2.35 ± 1.55 | Ig G [1, 6]: 15.26 ± 6.37 | Ig M [1, 6]: 1.57 ± 0.79 | RF [1, 6]: 1.74 ± 0.63 | Laboratory blood tests: Hg ([1]; 4 weeks): 10.96 ± 3.65 | Laboratory blood tests: WBC ([1]; 4 weeks): 7.47 ± 2.09 | Laboratory blood tests: BP [1, 7]: 94.28 ± 31.42 | Laboratory blood tests: BUN [1, 7]: 3.32 ± 1.11 | Laboratory blood tests: Cr [1, 7]: 82.82 ± 27.64 | Laboratory blood tests: GPT [1, 7]: Norm. | Laboratory blood tests: Hg ([1]; 8 weeks): 9.26 ± 3.09 | Laboratory blood tests: WBC ([1]; 8 weeks): 8.47 ± 2.82 | Laboratory blood tests: BP [1, 8]: 108.73 ± 36.21 | Laboratory blood tests: BUN [1, 8]: 1.97 ± 0.65 | Laboratory blood tests: Cr [1, 8]: 98.89 ± 32.93 | Laboratory blood tests: GPT [1, 8]: Norm. | Laboratory blood tests: Hg ([1]; 12 weeks): 9.24 ± 2.98 | Laboratory blood tests: WBC ([1]; 12 weeks): 8.42 ± 2.57 | Laboratory blood tests: BP [1, 9]: 110.66 ± 37.48 | Laboratory blood tests: BUN [1, 9]: 1.82 ± 0.47 | Laboratory blood tests: Cr [1, 9]: 102.03 ± 36.86 | Laboratory blood tests: GPT [1, 9]: Norm. | Laboratory blood tests: Hg ([1]; 24 weeks): 10.78 ± 3.10 | Laboratory blood tests: WBC ([1]; 24 weeks): 7.28 ± 2.67 | Laboratory blood tests: BP [1, 10]: 168.48 ± 30.78 | Laboratory blood tests: BUN [1, 10]: 3.38 ± 1.01 | Laboratory blood tests: Cr [1, 10]: 78.66 ± 26.42 | Laboratory blood tests: GPT [1, 10]: Norm. | Laboratory blood tests: Hg ([1]; period of treatment 0): 11.28 ± 3.72 | Laboratory blood tests: WBC ([1]; period of treatment 0): 7.96 ± 2.61 | Laboratory blood tests: BP [1, 11]: 98.97 ± 32.86 | Laboratory blood tests: BUN [1, 11]: 3.96 ± 1.32 | Laboratory blood tests: Cr [1, 11]: 74.86 ± 28.28 | Laboratory blood tests: GPT [1, 11]: Norm. | CRP ([1]; period of treatment 0): 32.01 ± 22.75 | ESR ([1]; period of treatment 0): 47.11 ± 26.19 | Ig A [1, 12]: 3.62 ± 3.42 | Ig G [1, 12]: 18.13 ± 7.12 | RF [1, 12]: 1.93 ± 0.61 | Events of reverse drug effects: Dizziness [2, 13]: 3 | Events of reverse drug effects: Headache [2, 13]: 1 | Events of reverse drug effects: Bad appetite [2, 14]: 2 | Events of reverse drug effects: Dizziness [2, 14]: 1 | Events of reverse drug effects: Frequency of micturition [2, 14]: 1 | Events of reverse drug effects: Headache [2, 14]: 1 | Events of reverse drug effects: Lethargy [2, 14]: 1 | Events of reverse drug effects: Nausea [2, 14]: 4 | Events of reverse drug effects: Bad appetite [2, 15]: 2 | Events of reverse drug effects: Insomnia [2, 15]: 1 | Events of reverse drug effects: Nausea [2, 15]: 4 | Events of reverse drug effects: Abd distension [2, 16]: 7 | Events of reverse drug effects: Bad appetite [2, 16]: 27 | Events of reverse drug effects: Burning heart [2, 16]: 1 | Events of reverse drug effects: Constipation [2, 16]: 3 | Events of reverse drug effects: Diarrhea [2, 16]: 1 | Events of reverse drug effects: Dizziness [2, 16]: 6 | Events of reverse drug effects: Headache [2, 16]: 1 | Events of reverse drug effects: Lethargy [2, 16]: 1 | Events of reverse drug effects: Nausea [2, 16]: 14 | Events of reverse drug effects: Palpitation [2, 16]: 3 | Events of reverse drug effects: Stomachache [2, 16]: 1 | Events of reverse drug effects: Stomatitis [2, 16]: 2 | Events of reverse drug effects: Vomiting [2, 16]: 3 | Events of reverse drug effects: Abd distension [2, 17]: 5 | Events of reverse drug effects: Bad appetite [2, 17]: 3 | Events of reverse drug effects: Diarrhea [2, 17]: 1 | Events of reverse drug effects: Headache [2, 17]: 1 | Events of reverse drug effects: Nausea [2, 17]: 8 | Events of reverse drug effects: Stomachache [2, 17]: 1 | Events of reverse drug effects: Burning heart [2, 18]: 2 | Events of reverse drug effects: Stomachache [2, 18]: 1 | Events of reverse drug effects: Abd distension [2, 19]: 11 | Events of reverse drug effects: Bad appetite [2, 19]: 28 | Events of reverse drug effects: Burning heart [2, 19]: 3 | Events of reverse drug effects: Constipation [2, 19]: 3 | Events of reverse drug effects: Diarrhea [2, 19]: 1 | Events of reverse drug effects: Dizziness [2, 19]: 4 | Events of reverse drug effects: Headache [2, 19]: 2 | Events of reverse drug effects: Insomnia [2, 19]: 5 | Events of reverse drug effects: Lethargy [2, 19]: 2 | Events of reverse drug effects: Nausea [2, 19]: 16 | Events of reverse drug effects: Palpitation [2, 19]: 3 | Events of reverse drug effects: Stomatitis [2, 19]: 9 | Events of reverse drug effects: Vomiting [2, 19]: 2 | Events of reverse drug effects: Abd distension [2, 20]: 4 | Events of reverse drug effects: Bad appetite [2, 20]: 5 | Events of reverse drug effects: Burning heart [2, 20]: 1 | Events of reverse drug effects: Headache [2, 20]: 1 | Events of reverse drug effects: Nausea [2, 20]: 7 | Events of reverse drug effects: Skin rash [2, 20]: 1 | Events of reverse drug effects: Stomatitis [2, 20]: 1 | Events of reverse drug effects: Vomiting [2, 20]: 1 | Events of reverse drug effects: Abd distension [2, 21]: 1 | Events of reverse drug effects: Bad appetite [2, 21]: 1 | Events of reverse drug effects: Burning heart [2, 21]: 1 | Events of reverse drug effects: Constipation [2, 21]: 1 | Events of reverse drug effects: Abd distension [2, 22]: 15 | Events of reverse drug effects: Bad appetite [2, 22]: 35 | Events of reverse drug effects: Burning heart [2, 22]: 2 | Events of reverse drug effects: Constipation [2, 22]: 2 | Events of reverse drug effects: Diarrhea [2, 22]: 1 | Events of reverse drug effects: Dizziness [2, 22]: 4 | Events of reverse drug effects: Headache [2, 22]: 2 | Events of reverse drug effects: Insomnia [2, 22]: 5 | Events of reverse drug effects: Lethargy [2, 22]: 1 | Events of reverse drug effects: Nausea [2, 22]: 25 | Events of reverse drug effects: Palpitation [2, 22]: 2 | Events of reverse drug effects: Skin rash [2, 22]: 1 | Events of reverse drug effects: Stomatitis [2, 22]: 9 | Events of reverse drug effects: Vomiting [2, 22]: 3 | Events of reverse drug effects: Abd distension [2, 23]: 4 | Events of reverse drug effects: Bad appetite [2, 23]: 3 | Events of reverse drug effects: Headache [2, 23]: 1 | Events of reverse drug effects: Insomnia [2, 23]: 1 | Events of reverse drug effects: Nausea [2, 23]: 10 | Events of reverse drug effects: Stomatitis [2, 23]: 1 | Events of reverse drug effects: Burning heart ([2]; overall group, 12 weeks, column 3): 1 | Events of reverse drug effects: Bad appetite [2, 24]: 3 | Events of reverse drug effects: Dizziness [2, 24]: 1 | Events of reverse drug effects: Headache [2, 24]: 2 | Events of reverse drug effects: Insomnia [2, 24]: 1 | Events of reverse drug effects: Nausea [2, 24]: 7 | Events of reverse drug effects: Vomiting [2, 24]: 2 | Events of reverse drug effects: Insomnia [2, 25]: 1 | Events of reverse drug effects: Nausea [2, 25]: 2 | Events of reverse drug effects: Vomiting [2, 25]: 1
